Experimental findings from US11311522B1 (Cavion, Inc., priority 2018, dated 2022) are described below.

The assay deals with human peroxisome proliferator-activated receptor gamma (PPARγ) (Homo sapiens, UniProt P37231). Put plainly: PPARγ binding.
human peroxisome proliferator-activated receptor gamma (PPARγ), sequence (P37231 whole entry): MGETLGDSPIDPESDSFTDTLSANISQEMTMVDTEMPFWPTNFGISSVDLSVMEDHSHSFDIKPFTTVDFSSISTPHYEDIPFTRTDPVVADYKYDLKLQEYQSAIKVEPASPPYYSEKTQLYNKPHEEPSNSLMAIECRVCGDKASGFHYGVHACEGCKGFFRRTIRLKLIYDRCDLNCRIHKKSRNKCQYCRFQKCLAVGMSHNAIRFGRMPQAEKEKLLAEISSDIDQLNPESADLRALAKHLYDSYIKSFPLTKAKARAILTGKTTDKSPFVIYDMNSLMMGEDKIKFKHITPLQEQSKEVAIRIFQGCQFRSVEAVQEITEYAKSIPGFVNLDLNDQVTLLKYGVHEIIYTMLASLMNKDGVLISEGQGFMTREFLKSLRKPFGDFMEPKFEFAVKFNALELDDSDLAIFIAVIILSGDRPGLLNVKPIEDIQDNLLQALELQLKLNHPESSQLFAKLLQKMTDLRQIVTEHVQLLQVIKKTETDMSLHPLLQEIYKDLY

As a reminder, the inhibition is how much of the control response was suppressed. In the case of `C=C(C)c1ccc(CC(=O)N[C@H](C)c2ccc(OCC(F)(F)F)cn2)cc1` [M01], at 10 µM the inhibition was 54%.
